# Source: patent US20030134353A1, “Recombinant dimorphic fungal cell” (Bioteknologisk Institut, priority 2001, published 2003)
# What was measured:
# M. circinelloides = conditions: van Heeswijck et al., 1988; acid pH (3.2 or 4.5); cited from earlier work
# [1] = test system: Mucor circinelloides strain R7B; assay: Screening of antibiotic sensitivity on YNB agar at pH 6.0; type: cell-based; conditions: YNB agar pH 6.0, 4 days at 28° C.
# Experimental: Spores of Mucor circinelloides strain R7B were plated on to YNB agar pH 6.0 supplemented with leucine (upper left plate in all panels) or the same medium supplemented with 50, 100 or 250 μg/ml of the antibiotic (geneticin, kanamycin, hygromycin B or neomycin) as indicated in each panel. After 4 days at 28° C., plates were examined and photographed.
# However, the conditions used for the above screening—especially the acid pH used (3.2 or 4.5)—may result in the inactivation of the antibiotic. Therefore, we performed an initial screening of antibiotic sensitivity using pH 6.0. Under these conditions, M. circinelloides is sensitive to all four antibiotic tested.
# pkaR expression = assay: Northern blot analysis of pkaR expression during aerobic growth after dbcAMP addition; type: cell-based, M. circinelloides; conditions: for Total Counts (pkaR mRNA, background subtracted): aerobic growth
# Experimental: M. circinelloides syn. racemosus R7B (ATCC 90680), a leucine auxotrophic strain of ATCC1216b, was used as a recipient for transformation experiments and for expression studies. Cultures were grown at 28° C. in either YPG (Bartnicki-Garcia and Nickerson, 1962), YNB (Lasker and Borgia, 1980), Vogel's medium supplemented with 1.5 g glutamic acid per litre (Hoekstra, 1996) or SIV medium with 1.5 g glutamic acid per litre in place of L-aspargine (Eslava and Alvarez, 1996). Vogel's and SIV media were supplemented with 2 g casamino acids (Difco, Detroit, Mich., USA) per litre. All media were supplemented with 1 mg/L niacin amide and 1 mg/L thiamine chloride. When appropriate, 20 mg/L leucine was added to allow for the growth of strain R7B. For the analysis of pkaR expression, 5 mM dbcAMP (Sigma) was added to aerobic growing cultures during exponential growth. The BBL GasPak system (Becton Dickinson, Sparks, Md., USA) was used for anaerobic incubation of strains on solid medium. E. coli DH5α was used for DNA manipulations.
# RNA isolation was carried out using a FastRNA kit (BIO101 Inc., CA, USA) and extraction with acid Phenol:chloroform (Sigma). For Northern blot analysis, total RNA was loaded onto formaldehyde containing agarose gel, subjected to electrophoresis, transferred to GeneScreen membrane (Du Pont) and hybridised as described (Arnau et al., 1996). Expression levels were meassured using a Cyclone Storage Phosphor System (Packard) and the OptiQuant image analysis software. A linear dynamic range of 5 orders of magnitude with only a 5% standard deviation is possible with the above apparatus. Dilution series of the RNA preparations (typically 20, 10 and 5 μg total RNA per sample) were used to estimate induction levels. Primer extension was carried out using a radioactively end-labelled primer; complementary to position 98-78 downstream of the pkaR ATG start codon. A sequence ladder was obtained using the same primer and pEUKA4-pkaR DNA as template using the Thermo Sequenase Radiolabeled Terminator Cycle Sequencing Kit (USB-Amersham). Probe labelling was performed using Ready-To-Go DNA Labelling Beads (Amersham Pharmacia Biotech). Unincorporated nucleotides were removed using a NICK column (Pharmacia).
# In a complementary study, the expression of pkaR was followed during aerobic (filamentous) growth before and after the addition of dbcAMP. This cAMP analogue is membrane permeable and its addition results in PKA activation.
compound,measurement,setting,value
CC[C@H]1/C=C/C=C/C[C@@H](C)[C@H](O)[C@@](C)(O)C(=O)[C@@H](C)[C@H](O)[C@@H](C)C(=O)[C@@H](C)[C@H](O)[C@@H](C)/C=C/C(=O)O[C@@H]2[C@H](C)[C@H](CC1)O[C@]1(CC[C@H](C)[C@H](C[C@@H](C)O)O1)[C@H]2C [oligomycin],Sensitivity of M. circinelloides to antibiotic as reported,M. circinelloides,insensitive
CN[C@H]1C[C@@H](N)[C@H](O)[C@@H](O[C@@H]2O[C@H](CO)[C@H](O)[C@@H]3OC4(O[C@H]23)O[C@H]([C@@H](N)CO)[C@H](O)[C@H](O)[C@H]4O)[C@@H]1O (some centres unmarked) [hygromycin B],Growth of M. circinelloides on antibiotic-supplemented plates,[1]; 50 μg/ml antibiotic,tiny colonies
same,Growth of M. circinelloides on antibiotic-supplemented plates,[1]; 100 μg/ml antibiotic,no growth
neomycin,Sensitivity of M. circinelloides to antibiotic as reported,M. circinelloides,insensitive
CCCCNC(=O)n1c(NC(=O)OC)nc2ccccc21 [benomyl],Sensitivity of M. circinelloides to antibiotic as reported,M. circinelloides,insensitive
CCCC(=O)Nc1ncnc2c1ncn2[C@@H]1O[C@@H]2COP(=O)(O)O[C@H]2[C@H]1OC(=O)CCC [dbcAMP],"Total Counts (pkaR mRNA, background subtracted)",pkaR expression; 15 min after addition of 5 mM dbcAMP,951
same,"Total Counts (pkaR mRNA, background subtracted)",pkaR expression; 30 min after addition of 5 mM dbcAMP,1728
same,"Total Counts (pkaR mRNA, background subtracted)",pkaR expression; 60 min after addition of 5 mM dbcAMP,2235
same,"Total Counts (pkaR mRNA, background subtracted)",pkaR expression; 120 min after addition of 5 mM dbcAMP,2392
same,"Total Counts (pkaR mRNA, background subtracted)",pkaR expression; 180 min after addition of 5 mM dbcAMP,2966
same,Induction of pkaR expression compared to the level before dbcAMP addition,pkaR expression; after three hours,sevenfold
